The text below walks through data of a melting point compilation (Tetko et al.; mined from patent text by program, amines drawn as free bases though some values may be those of a salt).

A value given as a limit tells only on which side of the number the result lay.

The term melting point denotes the temperature of the solid-liquid transition. For `CCCNC(=O)c1ccc(C)c(-c2nc(NCCN(C)C(=O)OC(C)(C)C)nc3c2ccc(=O)n3-c2c(F)cccc2F)c1`, the melting point was 115 to 118 °C. For `CN(C=O)C1c2ccccc2CCc2cc(Cl)ccc21` (stereo not drawn) the value was 122 to 124 °C; for `CCCc1cc(Cl)c2oc(Cc3ccccc3)c(C)c2c1O`, 69 to 70 °C; for `CCOC(=O)c1cnc(-c2cc3cccc(N)c3n2COC)s1`, 188 to 190 °C.

Regarding `O=c1[nH]nc(-c2ccc(NN=C(c3ccccc3)c3ccc(O)cc3O)cc2)c2ccccc12`, the melting point lay within 160 to 170 °C. `CC(=O)c1c(C)[nH]c(CC(=O)O)c1C` yielded a melting point of 195 to 205 °C.

Compound `CCCCNc1cc(C=NO)cc(S(N)(=O)=O)c1Oc1ccccc1` returned a melting point of 226 to 228 °C. Next, `CCN(CC)CCOc1ccc(CNc2ncc3c(n2)N(C)C(=O)N(c2c(Cl)cccc2Cl)C3)cc1`: 137 to 138 °C; `CCCC1CCC(C#Cc2ccc(OCC)c(F)c2F)CC1` (stereo not drawn): 64 °C.

Consider `CCOC(=O)C1=C(C)NC(C)=C(C(=O)OCC)C1c1c(C)sc2ccccc12`, for which the melting point lay in the range of 191 to 193 °C.

In the case of `CCc1cc(CC)n2ncc(Br)c2n1`, the melting point was in the range of 64 to 65 °C.

Turning to `O=C(Nc1ccccc1)O[C@@H]1CN=C(c2cccc(Cl)c2)O[C@H]1c1ccccc1` (racemic), the melting point came out at 126 °C. `CCOc1ccnc2c1c(C(C)=O)cn2S(=O)(=O)c1ccccc1`: the melting point lay in the range of 151 to 153 °C.

`O=C(O)c1ccc2cc(-c3ccc(CCCO)c(C45CC6CC(CC(C6)C4)C5)c3)ccc2c1` showed a melting point of 262 °C. Next, `CCOc1cc2c(Nc3ccc(OC)cc3)c(CO)cnc2nc1C`: 193 to 197 °C; `COc1c(C(C)(C)C)cc([PH](=O)c2cc(C(C)(C)C)c(OC)c(C(C)(C)C)c2)cc1C(C)(C)C`: 166 °C. `Cc1ccc(OCCCCCCN2CCN(c3nccs3)CC2)cc1`: the melting point lay within 37 to 39 °C.

`O=C(N[C@H](Cc1ccc(C(F)(F)F)cc1)[C@@H](O)c1ccc(F)cc1F)c1ccc(F)c2ccccc12` (racemic) gave a melting point of 194 to 195 °C. Consider `CCCCCCCCC1CC1C(N)=O` (stereo not drawn), for which the melting point is 109 to 110 °C.

`C1=CNC(C(c2ccccc2)c2ccccc2)=C(NCc2ccccc2)C=C1` returned a melting point of 186 to 187 °C. `CCCc1nn(-c2ccc(C(F)(F)F)cn2)cc1CCCOc1c(Br)cccc1CC(=O)O` yielded a melting point of 145 to 146 °C. Next, `CCOC(=O)c1[nH]c(-c2ccc(Cl)cc2)nc1C`: 237 to 238 °C. Turning to `CCS(=O)(=O)Nc1cccc2c1N=C(c1ccc(-n3c(C)nc4cnccc43)cc1)CC(=O)N2`, the melting point is 258 to 260 °C. Next, `CC(C)NCCOc1ccc(O)cc1`: 78 to 80 °C.

`Cc1ccc(-c2ccc(C)cc2C=CC#Cc2ccc(C(=O)O)cc2)cc1` returned a melting point of 61 to 67 °C. In the case of `O=C(NCc1ncc[nH]1)c1[nH]c2ccc(Cl)cc2c1S(=O)(=O)c1ccccc1`, the melting point is 276 to 278 °C. `NC(=O)c1cc2cc(Br)ccc2o1` yielded a melting point of 210 to 213 °C. Next, `CCOC1=C(C#N)S(=O)(=O)N=C1N`: 236 to 238 °C; `c1ccc(C(CCOc2ccc(CCC3=NCCO3)cc2)(c2ccccc2)c2ccccc2)cc1`: 130 to 131 °C; `O=C(O)CCc1cnn2c(=O)[nH]cnc12`: 277 °C. `CC1(C)CC(=O)c2c(C3CC3)sc(C#N)c2C1` displayed a melting point of 80 to 83 °C. For `CCOc1cccc2c1C(=NNc1ccc(S(N)(=O)=O)cc1)C(=O)N2` the value was more than 250 °C; for `O=C(CCNC(=O)[C@H](Cc1ccc(-c2ccccc2)cc1)NCP(=O)(Oc1ccccc1)Oc1ccccc1)Oc1ccc2c(c1)CCC2`, 89 to 91 °C; for `COC(=O)C(Oc1ccc(CCCCCCCl)cc1)c1ccc(Sc2ccc(Cl)cc2)cc1` (stereo not drawn), 122 to 124 °C.

For `COc1ccc(CCNC(=O)Nc2ccccc2CCc2cc(C(C)(C)C)c(O)c(C(C)(C)C)c2)cc1`, the melting point was in the range of 148 to 149 °C. The compound `Cc1cc(O)c(C)c2c1NCC2` displayed a melting point of 155 to 158 °C. For the compound `Cc1cc2n(C)c(=O)c3cnc(Cl)cc3n2n1`, the melting point was 254 °C. Next, `CCn1nnc2c(sc3nc(C)ccc32)c1=O`: 165 to 167 °C; `O=C(O)Cc1cc(Cl)ccc1OCCCc1ccccc1`: 95 to 96.5 °C. Next, `CCc1c(-c2ccc(OCc3ccccc3)cc2)c2cc(C(=O)O)c3c(NC(C)=O)ccc1n23`: 244 to 246 °C. Next, `NS(=O)(=O)c1ccc(-n2nc(C(F)(F)F)cc2-c2nc3ccc(F)cc3s2)cc1`: 260 to 261 °C; `COC(=O)c1ccc(Cn2nc(O)c3ccc(NC(=O)CC4CCCC4)cc32)c(OC)c1`: 242 to 245 °C; `N=C(Nc1cccc(NC(=O)/C=C/c2ccccc2Cl)c1)c1ccccc1`: 262 to 264 °C. Take `CC1(C)CC(=O)Nc2cc3nc(-c4ccc(OS(C)(=O)=O)cc4)[nH]c3cc21`: the melting point was 209 to 215 °C. Next, `COc1ccc(C(=O)NCCCN2CCN(C(c3ccccc3)c3ccccc3)CC2)cc1`: 126 to 128 °C.

`COC(=O)[C@@](N)(CCSC)C(=O)c1ccc(NC[C@@H]2C[C@@H](O)CN2C(=O)OC(C)(C)C)cc1-c1ccccc1` returned a melting point of 81 °C.

With `O=C(F)c1c(Cl)ccc2cc(C(F)(F)F)cnc12`, the melting point lay within 98 to 99 °C. In turn, `CCCC1(CCC)CCC2(CC1)CC(=O)N(CCC#N)C2=O` gave a melting point of 117 to 118 °C. Next, `CN(CC(=O)N(C)c1ccc(OCC(=O)N[C@@H](CC(N)=O)C(=O)[C@@H](C(N)c2ccccc2)[C@H](O)C(=O)N2CCC[C@H]2C(=O)NC(C)(C)C)cc1)c1ccccc1` (stereo partly drawn): 107 to 112 °C; `N#Cc1ncccc1OC1SCC(O)C(O)C1O` (stereo not drawn): 174 °C; `CC(C)c1nn(Cc2ccc(Cl)cc2Cl)cc1CCCO`: 68 to 69 °C. For `O=C(O)CN1CN(c2ccccc2)C2(CCCCC2)C1`, the melting point is 162 to 164 °C. For `O=C1NCC=NN1c1cc(Cl)c(Sc2ccc(Cl)cc2)c(Cl)c1`, the melting point lay in the range of 224 to 225 °C.

Compound `COc1ccc(O)c(C2(CO)C(=O)N(CO)c3cccc(Br)c32)n1` (stereo not drawn) showed a melting point of 142 to 145 °C. For `CC12CCC3c4ccc(C(=O)O)cc4CCC3C1CCC2C(=O)c1cccnc1` (stereo not drawn), the melting point fell in the range of 189 to 192 °C. For `CCOC(=O)c1cc2c3c(c(-c4ccccc4Cl)cc2n1CCCOC)C(=O)NC3=O` the value was 235 to 237 °C; for `COc1cc(N2CCCN(C[C@@H](C)O)CC2)ccc1Nc1ncc2ccc(-c3ccccc3OC)n2n1`, 70 to 79 °C; for `CN1CCC(c2c(O)cc(O)c3c(=O)cc(Sc4ccccc4)oc23)C(O)C1` (stereo not drawn), 82 °C. Turning to `CC#CC1(C)OC(=O)Nc2ccc(-c3cccc(Cl)c3)cc21` (stereo not drawn), the melting point is 184 to 185 °C. For `CN1CCC(c2c[nH]c3ccc(C(=O)c4ccc(F)cc4)cc23)CC1` the value was 89 °C; for `CNc1cc(NC)nc(NC)n1`, 215 °C; for `Cc1oc(-c2ccco2)nc1COc1ccc(Cn2cc(CCC(=O)O)c(-c3ccccc3)c2)cc1`, 86 to 87 °C. For the compound `O=C1OCC(CCO)(c2ccc(Cl)c(Cl)c2)CN1Cc1ccccc1` (stereo not drawn), the melting point was 143 °C. `C#CC1(O)CCC2C3CCC4=CC(=O)CCC4C3C(=CF)CC21C` (stereo not drawn) returned a melting point of 188 to 190 °C. On to `CCNc1cc2c(cc1Cl)CCN(C)C[C@@H]2c1ccccc1`, for which the melting point lay within 120 to 121 °C. `O=C1C(=O)c2c(nc3ccccn23)-c2cc([N+](=O)[O-])ccc21` showed a melting point of more than 300 °C. As to `CCCn1c(CCOC)nc2c(N)nc3cc(OC4CCN(C(=O)NC(C)C)CC4)ccc3c21`, the melting point is 176 to 179 °C. In turn, `COC(=O)c1ccc([N+](=O)[O-])cc1S(=O)(=O)Cl` registered a melting point of 86 to 88 °C. Next, `CCCCCCCCCCNC(=O)c1ccc(C(=O)NCCCCCCCCCC)c(N(CC(=O)O)CC(=O)O)c1`: 135 to 136 °C; `CCn1cc(C(=O)O)c(=O)c2cc(F)c(F)c(C)c21`: 219 to 221 °C; `O=C(O)CN1C(=O)C(=CC2CC=CCC2)SC1=S` (stereo not drawn): 191 to 193 °C.

Consider `O=C1CC2(CCCC2)c2ccc([N+](=O)[O-])cc21`, for which the melting point stood at 104 °C.

`Cc1cc(NCCO)c2[nH]ncc2n1`: the melting point was in the range of 213 to 216 °C.

For the compound `CN=C1SCC(O)(C(c2ccccc2)c2ccccc2)N1C` (stereo not drawn), the melting point is 133 to 136 °C. For `CN1CNS(=O)(=O)c2cc(O)ccc21` the value was 168 to 172 °C; for `Cc1ccc(C(=O)NC(C)NC(=S)Nc2cccc([N+](=O)[O-])c2)cc1` (stereo not drawn), 172 to 175 °C; for `CC1(C)C(C(=O)O)C12C=CC=C2` (stereo not drawn), 126 to 129 °C. The compound `COCc1nc2cc3c(cc2[nH]1)NC(=O)C3(C)C` displayed a melting point of 203 to 205 °C.

The compound `CC(=O)OCCC1Cc2c(C)c(OCc3ccccc3)c(C)c(C)c2O1` (racemic) registered a melting point of 80 to 82 °C. For `Cc1cc2cc(CN3CCCC3)cnc2cc1NC(=O)c1ccc(-c2ccc(Cl)cc2)cc1` the value was 214 to 217 °C; for `Cn1c(C(=O)O)c(-c2ccc(F)cc2)c2nccnc2c1=O`, 247 to 249 °C; for `CCCCc1ccc(C(=O)O)c(=O)[nH]1`, 149 °C. Next, `CS(=O)(=O)Cc1ccc2oc([N+](=O)[O-])c(-c3ccccc3)c2c1`: 178 to 181 °C; `O=[N+]([O-])c1c(Cl)nc(C2CC2)nc1Cl`: 50 to 52 °C; `N#CCC(C#N)NNc1ccccc1` (stereo not drawn): 97 to 98 °C. `Oc1ccc(-c2ncc3ncc(Nc4ncccn4)cc3n2)cc1` gave a melting point of more than 268 °C.

Turning to `CC(=O)OCc1c(-c2cc(Nc3cc4n(n3)CCN(C3COC3)C4)c(=O)n(C)n2)cccc1-n1ncc2cc(C(C)(C)C)cc(F)c2c1=O`, the melting point fell in the range of 180 to 185 °C. `CN1C(=O)C(Br)(Br)CC1c1cncc(Br)c1` (stereo not drawn) had a melting point of 139 to 140 °C.
